Reference: patent US7629135B2, “Toll-like receptor agonists and antagonists and methods of use thereof” (The Board of Trustees of the University of Illinois, priority 2006, dated 2009)

Columns and labels:
[1] = tested on: mouse bone marrow derived macrophages (BMDM); experiment: G-CSF secretion in mouse BMDM (ELISA); type: cell-based; conditions: for G-CSF secretion by FPRL1 agonists: 16 h
Description: SAA induces G-CSF expression in monocytes and macrophages: To determine whether SAA plays a role in neutrophilia, the ability of SAA to stimulate G-CSF expression was investigated. Human peripheral blood monocytes (PBMC) were incubated with SAA, and the concentration of secreted G-CSF in the culture medium was determined at various time points after stimulation. The concentration of SAA used in this experiment (1 μM) was well within its physiological range (0.08 μM to 80 μM). […] Since subsequent studies used mice for measurement of G-CSF secretion and neutrophilia, SAA-induced G-CSF expression in mouse bone marrow derived macrophages (BMDM) was determined, of which 98% were F4/80^+ CD14^+ based on flow cytometry analysis. […] The basal level of G-CSF remained stable at approximately 42 pg/ml/10^6 cells over the entire course of incubation.
It was next determined whether induction of G-CSF expression was a primary function of SAA or resulted from contaminating LPS in the SAA preparation. The LPS concentration in the recombinant SAA preparation was ≦0.1 ng/μg protein, translating into ≦1.14 ng/ml LPS in a typical experiment with 1 μM SAA. LPS at this or 10-fold higher concentrations was tested for its effect on the expression of G-CSF. […] Given that most proteins are heat labile while LPS is heat resistant, the ability of heat-treated SAA (1 μM) and LPS (1 μg/ml) to stimulate G-CSF secretion in mouse BMDM was examined. After boiling for 25 min, LPS retained its ability to induce G-CSF production by ˜83%. […] In parallel experiments, polymyxin B, an amphiphilic cyclic polycationic peptide that specifically binds to LPS and blocks the cytokine-inducing effect of LPS (Stokes et al., 1989), was used to treat SAA or LPS prior to incubation with BMDM. […] Under the same experimental conditions, polymyxin B reduced LPS-stimulated G-CSF secretion by more than 70%.
It was previously shown that FPRL1 is involved in SAA-induced IL-8 production in human neutrophils (He et al., 2003). It has also been shown that SAA binds to FPRL1 and stimulates the production of matrix metalloproteinase (O'Hara et al., 2004). […] A role of TLR2 in SAA-stimulated G-CSF expression was examined.
Cell preparation and culture: Human peripheral blood monocytes were prepared from fresh, heparinized venous blood by Ficoll-Hypaque density-gradient centrifugation. Blood drawing followed a protocol approved by the Institutional Review Board at the University of Illinois at Chicago. Purified monocytes (>93% CD14^+ by flow cytometry) were kept in nonadherent condition in RPMI 1640 containing 0.5% FBS and maintained at 37° C. Mouse macrophages were differentiated from bone marrow cells. Mouse bone marrow cells were aspirated from the femurs of 8-12-week-old mice and cultured at 37° C. in 5% CO2 in RPMI 1640 medium containing 10% FBS, 15% L-cell conditional medium, 10 mM HEPES, 2 mM L-glutamine, 100 IU/ml penicillin, and 50 μg/ml streptomycin. The medium was changed every three days. Macrophages (about 98% F4/80+ by flow cytometry) were obtained after 7 days of culture. The mouse macrophage cell line RAW264.7 cells were maintained in DMEM medium supplemented with 10% FBS, 10 mM HEPES, 2 mM L-glutamine, 100 IU/ml penicillin, and 50 μg/ml streptomycin. TLR2-HeLa cells were generated by transfection of HeLa cell with the expression construct pUNO-hTLR2 (InvivoGen). Stable transfectants were selected with Blasticidin at 20 μg/ml for 2 weeks. Mock-transfected HeLa cells were generated similarly, with a pUNO empty vector. Cells were maintained in DMEM supplemented with 10% heat-inactivated FBS, 2 mM L-glutamine, 100 IU/ml penicillin, and 50 μg/ml streptomycin. Expression of TLR2 was confirmed using an anti-TLR2 antibody (eBioscience) and FTTC-conjugated anti-mouse antibody, on a FACSCalibur flow cytometer (Becton Dickinson). FIGS. 12 and 13 are plasmid maps of pUNO-hTLR2 and pNF-κB-Luc, respectively. […]

[2] = tested on: RelA/p65 binding to the CK-1 site of the G-CSF promoter; experiment: Chromatin immunoprecipitation (ChIP) assay in RAW264.7 cells; type: cell-based, mouse; conditions: SAA 1 μM or TNFα 50 ng/ml
Description: To investigate the mechanism for SAA-induced G-CSF production, the level of G-CSF transcript in SAA-stimulated BMDM was determined. […] The induction of G-CSF transcript peaked at 4 h after SAA stimulation. Since transcription of the G-CSF gene involves NF-κB binding to the RelA/p65 consensus element in the CK-1 site of the G-CSF promoter (Dunn et al., 1994; Hareng and Hartung, 2002), the role of NF-κB in SAA-stimulated G-CSF expression was determined. […] Using oligonucleotide probe based on the sequence of the CK-1 site (−161 to −152 in the G-CSF promoter), a protein •DNA complex (FIG. 2C) was identified. […] Inclusion of a RelA/p65 antibody blocking peptide in the assay abrogated the immunoprecipitation (FIG. 2D).
ChIP assay: Reagents were obtained from Upstate Biotechnology, and ChIP assay was performed as per manufacturers specifications with minor modifications. Briefly, a total of 1×10^7 RAW264.7 cells were harvested and resuspended in a serum-free DMEM medium absence or presence of 1 μM SAA, or 50 ng/ml of TNFα, and incubated for 30 or 60 min at 37° C. Following stimulation, cells were crosslinked and then washed and resuspended in SDS-lysis buffer, and were sonicated (4 times for 10 s each, with a setting at ‘4’ on a Fisher Sonic 60 dismembrenator). […] The PCR products were analyzed on a 2.5% agarose gel.

TLR2 = target: T1, TLR2 (Homo sapiens, UniProt O60603); experiment: NF-κB luciferase reporter assay in TLR2-HeLa cells; type: cell-based; conditions: HDL preincubation
T1 construct: host or cells: HeLa
Description: To determine whether TLR2 is a receptor for SAA, a TLR2-expressing cell line was prepared in HeLa cells, which contain very little endogenous TLR2 transcript (FIG. 6A, upper panel). […] TLR2 is a class I transmembrane protein that contains an extracellular ligand binding domain (ectodomain), a transmembrane domain and a cytoplasmic domain consisting of the Toll/IL-1/receptor/Resistance (TIR) motif. Studies have shown that TLR2 forms heterodimers with TLR1 and TLR6 (Ozinsky et al., 2000), which display different preference for TLR2 ligands (Hoebe et al., 2005; Takeuchi et al., 2002). The C-terminal TIR domain is conserved among TLRs and responsible for TLR signaling (O'Neill and Bowie, 2007; Takeda and Akira, 2004). To assess the relative contributions of TLRs to SAA signaling, TLR1, TLR2, TLR4 and TLR6 were overexpressed in the TLR2-HeLa cells, and their effects on SAA-induced NF-κB luciferase reporter activity were determined. […] In addition, the TIR domain deletion mutants (ΔTIR) of these receptors were expressed, which are negative regulators of TLR signaling.
Methods for the generation of TLR2-HeLa stable cell line: HeLa cells stably transfected with human TLR2 gene were generated by transfecting HeLa cells with the expression construct pUNO-hTLR2 (InvivoGen, San Diego, Calif.; GenBank accession number for human TLR2 cDNA is NM_003264) and selected with Blasticidin at concentration of 20 μg/ml for 2 weeks. The control HeLa cells were generated at the same time by transfecting with empty pUNO vector. Cells were maintained in DMEM supplemented with 10% heat-inactivated FB S, 2 mM L-glutamine, 100 IU/ml penicillin, and 50 μg/ml streptomycin. Expression of TLR2 was confirmed using an anti-TLR2 antibody (eBioscience) and FTTC-conjugated anti-mouse antibody, on a FACSCalibur flow cytometer (Becton Dickinson). The TLR2-HeLa and control cells were then co-transfected with 5xNF-κB reporter plasmids (pNF-κB-Luc, Stratagene, Cedar Creek, Tex., catalog no. 219077) and empty SFFV vector bearing a neomycin resistant gene. The TLR2-HeLa/NF-κB reporting cells were obtained after selecting with G418 at concentration of […] for 2-3 weeks. Cells (5′10^5/ml) were grown in DMEM supplemented with 10% heat-inactivated FBS, 2 mM L-glutamine, 100 IU/ml penicillin, and […] streptomycin.
Methods for using HeLa cells in reporter assay: Mock-transfected HeLa and TLR2-HeLa cells were maintained at ˜5×10^5 cells/well in six-well plates, transfected with plasmid expression vectors coding for a 3×κB-directed luciferase reporter, pCMVβ vector DNA (Promega) and/or other expression constructs as indicated. Total DNA concentration was adjusted to 1 μg/sample by addition of empty vector DNA. Transient transfection was performed using LipofectAmine Plus reagent (Invitrogen). […]

T1 sequence (O60603 21-784): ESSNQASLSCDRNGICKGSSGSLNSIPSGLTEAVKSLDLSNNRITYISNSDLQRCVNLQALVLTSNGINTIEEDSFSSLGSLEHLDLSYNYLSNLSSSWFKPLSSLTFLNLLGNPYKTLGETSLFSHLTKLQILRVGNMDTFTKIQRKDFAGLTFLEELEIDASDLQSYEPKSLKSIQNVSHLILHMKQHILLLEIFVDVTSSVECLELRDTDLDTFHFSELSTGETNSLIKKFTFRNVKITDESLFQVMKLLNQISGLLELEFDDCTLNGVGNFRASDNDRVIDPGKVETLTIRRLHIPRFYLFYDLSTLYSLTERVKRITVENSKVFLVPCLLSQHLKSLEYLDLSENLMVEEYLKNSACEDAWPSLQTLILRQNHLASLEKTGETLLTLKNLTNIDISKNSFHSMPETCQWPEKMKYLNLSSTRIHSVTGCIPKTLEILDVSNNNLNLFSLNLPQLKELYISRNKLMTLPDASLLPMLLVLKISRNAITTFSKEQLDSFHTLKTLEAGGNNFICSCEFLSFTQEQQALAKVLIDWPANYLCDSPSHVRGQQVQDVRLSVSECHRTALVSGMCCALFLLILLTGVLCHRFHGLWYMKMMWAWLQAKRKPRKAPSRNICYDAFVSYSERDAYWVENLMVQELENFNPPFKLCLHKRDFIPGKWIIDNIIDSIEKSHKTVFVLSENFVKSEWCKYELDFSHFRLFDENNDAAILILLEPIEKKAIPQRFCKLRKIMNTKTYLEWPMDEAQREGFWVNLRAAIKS
T1 sequence (Q15399 25-786 partner): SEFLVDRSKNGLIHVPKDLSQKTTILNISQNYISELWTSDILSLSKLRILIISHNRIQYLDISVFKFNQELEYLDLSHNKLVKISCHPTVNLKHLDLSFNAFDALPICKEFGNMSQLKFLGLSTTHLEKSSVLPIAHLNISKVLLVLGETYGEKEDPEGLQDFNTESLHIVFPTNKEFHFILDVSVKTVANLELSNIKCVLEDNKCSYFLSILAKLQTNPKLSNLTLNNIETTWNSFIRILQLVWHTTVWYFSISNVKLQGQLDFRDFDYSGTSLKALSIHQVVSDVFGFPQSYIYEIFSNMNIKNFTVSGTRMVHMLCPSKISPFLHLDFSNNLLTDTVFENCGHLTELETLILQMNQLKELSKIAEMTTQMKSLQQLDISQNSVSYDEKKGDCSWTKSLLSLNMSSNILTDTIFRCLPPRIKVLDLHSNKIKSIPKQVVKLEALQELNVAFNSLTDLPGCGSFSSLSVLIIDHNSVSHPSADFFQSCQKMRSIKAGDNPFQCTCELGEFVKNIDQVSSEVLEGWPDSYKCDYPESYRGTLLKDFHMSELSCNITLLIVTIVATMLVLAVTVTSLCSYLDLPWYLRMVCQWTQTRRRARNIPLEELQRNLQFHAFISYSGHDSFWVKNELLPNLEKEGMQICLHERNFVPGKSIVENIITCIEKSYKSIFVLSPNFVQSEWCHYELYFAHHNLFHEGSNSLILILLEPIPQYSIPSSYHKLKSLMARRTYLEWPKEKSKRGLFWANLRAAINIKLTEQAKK

LESIFRSLLFRVM [MMK-1, reference compound]
G-CSF secretion by FPRL1 agonists ([1]; BMDM): unable to stimulate G-CSF secretion

Polymyxin B [reference compound]
reduction of LPS-stimulated G-CSF secretion ([1]; polymyxin B 50 μg/ml pretreatment of LPS 1 μg/ml, BMDM): more than 70% | effect on potency of SAA in stimulating G-CSF expression ([1]; polymyxin B 50 μg/ml pretreatment of SAA, BMDM): minimal effect

TNFα [reference compound]
pull-down of CK-1 DNA fragment by anti-RelA/p65 antibody [2]: able to pull-down the CK-1 DNA fragment

WKYMVm [reference compound]
G-CSF secretion by FPRL1 agonists ([1]; BMDM): unable to stimulate G-CSF secretion

pertussis toxin [reference compound]
inhibition of SAA-induced G-CSF secretion ([1]; BMDM pretreated overnight with pertussis toxin up to 200 ng/ml, then SAA 16 h): no significant inhibition

B1: L7A: SAA with Leucine to Alanine mutation at position 7 (protein)
chain: RSFFSFAGEAFDGARDMWRAYSDMREANYIGSDKYFHARGNYDAAKRGPGGAWAAEVITDARENIQRFFGHGAEDSLADQAANEWGRSGKDPNHFRPAGLPEKY
effect of L7A mutation of SAA on the reduction by HDL of NF-κB activation (TLR2): partially reversed the reduction effect by HDL
